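Tested at 5 concentrations; 48 h exposure; 96-well plates; endpoints linearly interpolated, else capped at highest concentration. GI50: concentration for 50% inhibition of growth.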 Active and inactive are the calls of the source. No stated cut-off is given here; in the data, active = GI50 up to about 1.1 µM and inactive = higher. Some results are limits rather than exact numbers.

Test systems include HCT-116; HL-60; HOP-62; LOX IMVI; M14; MCF7; MOLT-4; NCI-H522; NCI/ADR-RES; OVCAR-4; PC-3; SF-268; SF-539; SNB-19; U-251; UACC-62; CAKI-1; MDA-MB-435.
What all share (test): inhibition of tumour cell growth, NCI panel, 48 h

Take `OCCOCn1nc(-c2ccccc2)nc1-c1cnccn1`: the GI50 in the test on HCT-116, in the test with HL-60, in the test with HOP-62, with LOX IMVI, in the test with M14 and in the test with MCF7 was > 100 µM (inactive) throughout. The GI50 in the test with MOLT-4, in the test with NCI-H522, in the test on NCI/ADR-RES, with OVCAR-4, in the test on PC-3 and in the test on SF-268 was > 100 µM (inactive) each time. The GI50 with SF-539, in the test with SNB-19, in the test with U-251 and in the test with UACC-62 was > 100 µM (inactive) throughout.
`CCN1CCC(O)(/C=C/c2ccccc2C)C(C(=O)/C=C/c2ccccc2C)C1` (configuration not stated): the GI50 is 1.82 µM (inactive) in the test with CAKI-1; 1.78 µM (inactive) in the test on HCT-116; 2.01 µM (inactive) with HL-60; 1.94 µM (inactive) in the test on HOP-62; 1.68 µM (inactive) in the test with LOX IMVI; 2.04 µM (inactive) in the test on M14. For the same compound, the GI50 is 3.15 µM (inactive) in the test with MCF7; 2.38 µM (inactive) in the test on MDA-MB-435; 2.38 µM (inactive) with MOLT-4; 3.65 µM (inactive) in the test with NCI/ADR-RES; 3.67 µM (inactive) in the test with OVCAR-4; 1.93 µM (inactive) in the test on PC-3. The GI50 in the test with SF-268 was 3.87 µM (inactive); with SF-539 it was 2.31 µM (inactive); with U-251, 2.34 µM (inactive); with UACC-62, 2.97 µM (inactive).
`COc1cc(C2c3cc4c(cc3OC(N3CCCCC3)C2C)OCO4)cc(OC)c1OC` (configuration not stated): the GI50 in the test on CAKI-1 is 2.46 µM (inactive); in the test on HCT-116, 3.37 µM (inactive); in the test on HL-60, 2.33 µM (inactive); in the test on HOP-62, 2.85 µM (inactive); in the test on LOX IMVI, 4.85 µM (inactive); with M14, 2.83 µM (inactive). Also, the GI50 was 1.44 µM (inactive) in the test on MCF7; 0.67 µM (active) in the test with MDA-MB-435; 3.9 µM (inactive) in the test on MOLT-4; 2.49 µM (inactive) in the test with NCI-H522; 3.17 µM (inactive) in the test with NCI/ADR-RES; 13 µM (inactive) in the test with OVCAR-4. The GI50 is 3.5 µM (inactive) in the test on PC-3; 9.02 µM (inactive) with SF-268; 2.2 µM (inactive) with SF-539; 3.24 µM (inactive) with SNB-19; 3.2 µM (inactive) in the test with U-251; 3.53 µM (inactive) with UACC-62.
In the case of `CCN(CC)Cc1ccc2cccnc2c1O`, the GI50 in the test with CAKI-1 was 2.47 µM (inactive); in the test with HCT-116, 3.59 µM (inactive); with HL-60, 0.43 µM (active); in the test with HOP-62 it was 4.5 µM (inactive); in the test with LOX IMVI, 3.84 µM (inactive); in the test with MCF7, 3.27 µM (inactive). Also, the GI50 in the test with MDA-MB-435 is 9.42 µM (inactive); in the test with MOLT-4, 1.93 µM (inactive); with NCI-H522 it was 0.37 µM (active); with NCI/ADR-RES, 0.358 µM (active); with OVCAR-4, 16.4 µM (inactive); in the test with PC-3, 6.05 µM (inactive). Further, the GI50 in the test with SF-268 was 22.6 µM (inactive); with SF-539, 6.58 µM (inactive); in the test with SNB-19 it was 18.5 µM (inactive); in the test on U-251, 4.47 µM (inactive); in the test on UACC-62, 5.92 µM (inactive).
In the case of `CCN(CC)CCN(C(=O)c1ccc(F)cc1)c1ccccc1N`, the GI50 with CAKI-1, in the test with HCT-116, in the test with HL-60, in the test on HOP-62, in the test on LOX IMVI and in the test on M14 was > 10 µM (inactive) each time. The GI50 in the test on MCF7, in the test with MDA-MB-435, in the test on MOLT-4, with NCI-H522, in the test with NCI/ADR-RES and in the test with OVCAR-4 was > 10 µM (inactive) throughout. Further, the GI50 in the test on PC-3, in the test on SF-268, with SF-539, in the test on SNB-19, with U-251 and in the test on UACC-62 was > 10 µM (inactive) throughout.
Turning to `Cn1ccc(C(=O)NCCN(CCNC(=O)c2ccn(C)c(=O)c2O)CCNC(=O)c2ccn(C)c(=O)c2O)c(O)c1=O`, the GI50 in the test on CAKI-1, in the test on HL-60, in the test on HOP-62, in the test on M14, in the test on MCF7 and in the test on MDA-MB-435 was > 100 µM (inactive) each time. Besides, the GI50 in the test with NCI-H522, with NCI/ADR-RES, in the test on OVCAR-4, in the test on PC-3, with SF-268 and with SF-539 was > 100 µM (inactive) in each case. Moreover, the GI50 in the test on SNB-19, in the test on U-251 and in the test with UACC-62 was > 100 µM (inactive) each time.
As to `CC(=O)OCCCCn1cnc2nc(Nc3ccccc3)nc(Cl)c21`, the GI50 in the test on CAKI-1 was 14 µM (inactive); in the test with HCT-116, 72.4 µM (inactive); in the test on HL-60 it was > 100 µM (inactive); with HOP-62, 62.7 µM (inactive); in the test on LOX IMVI, 67.5 µM (inactive); in the test on M14, 59.6 µM (inactive). The GI50 in the test on MCF7 is > 100 µM (inactive); in the test with MDA-MB-435 it was 34.4 µM (inactive); in the test on MOLT-4, 66.5 µM (inactive); in the test on NCI/ADR-RES it was 42.4 µM (inactive); in the test on OVCAR-4 it was 65.3 µM (inactive); in the test with PC-3 it was 42.5 µM (inactive). Besides, the GI50 is > 100 µM (inactive) in the test on SF-268; > 100 µM (inactive) with SF-539; > 100 µM (inactive) in the test on SNB-19; > 100 µM (inactive) with U-251; 33.7 µM (inactive) in the test with UACC-62.
As to `Nc1ccc(C2(c3ccc(N)cc3)C3CC4CC(C3)CC2C4)cc1`, the GI50 in the test with CAKI-1 was 15 µM (inactive); in the test with HCT-116 it was 21.9 µM (inactive); in the test on HL-60, 19.2 µM (inactive); in the test with HOP-62, 13.6 µM (inactive); in the test with LOX IMVI it was 16.2 µM (inactive); in the test with M14, 14.9 µM (inactive). Besides, the GI50 in the test on MCF7 is 19.5 µM (inactive); in the test with MDA-MB-435, 14.7 µM (inactive); with MOLT-4 it was 4.95 µM (inactive); with NCI-H522, 15.6 µM (inactive); in the test with NCI/ADR-RES, 0.0792 µM (active); with OVCAR-4, 14.3 µM (inactive). Moreover, the GI50 in the test on PC-3 was 14.9 µM (inactive); with SF-268, 1.57 µM (inactive); in the test on SNB-19 it was 14.6 µM (inactive); with U-251 it was 18.3 µM (inactive); with UACC-62, 16.3 µM (inactive).
As to `COc1ccc(/C=C/c2cnccn2)cc1OC`, the GI50 with CAKI-1, in the test with HCT-116, in the test with HOP-62, in the test on LOX IMVI, with M14 and in the test with MCF7 was > 10 µM (inactive) throughout. Moreover, the GI50 in the test with MDA-MB-435, in the test with NCI-H522, in the test with NCI/ADR-RES, in the test with OVCAR-4, with PC-3 and in the test on SF-268 was > 10 µM (inactive) each time. Besides, the GI50 in the test with SF-539, in the test on SNB-19, in the test on U-251 and with UACC-62 was > 10 µM (inactive) throughout.
Take `Nc1ncnc2c1ncn2C=C=CCO`: the GI50 in the test on CAKI-1, in the test on HCT-116, in the test with HOP-62, with LOX IMVI, with M14 and with MCF7 was > 100 µM (inactive) each time. The GI50 in the test on MDA-MB-435, with MOLT-4, in the test with NCI/ADR-RES, in the test with OVCAR-4, with PC-3 and with SNB-19 was > 100 µM (inactive) in each case. Besides, the GI50 in the test with U-251 is > 100 µM (inactive).
Regarding `NCCCCN(CCCN)Cc1ccccc1`, the GI50 in the test with CAKI-1, in the test on HCT-116, in the test with HL-60, with HOP-62, in the test on M14 and in the test on MCF7 was > 100 µM (inactive) throughout. In addition, the GI50 in the test with MDA-MB-435, in the test with MOLT-4, with NCI-H522, in the test on NCI/ADR-RES, in the test on OVCAR-4 and in the test with PC-3 was > 100 µM (inactive) each time. Further, the GI50 with SF-268, with SF-539, with SNB-19, with U-251 and with UACC-62 was > 100 µM (inactive) in each case.
For `C(/C=N/c1ccccc1)=C(/Nc1ccccc1)C12CC3CC(CC(C3)C1)C2`, the GI50 with CAKI-1 is 15.4 µM (inactive); with HCT-116, 13.2 µM (inactive); in the test on HL-60, 12.1 µM (inactive); with HOP-62 it was 19.2 µM (inactive); in the test with LOX IMVI, 12.9 µM (inactive); with M14 it was 12.7 µM (inactive). Besides, the GI50 in the test on MCF7 is 20.5 µM (inactive); with MDA-MB-435, 15.2 µM (inactive); with MOLT-4, 5.73 µM (inactive); in the test with NCI-H522 it was 10.4 µM (inactive); in the test on NCI/ADR-RES, 19.3 µM (inactive); in the test with OVCAR-4, 16.3 µM (inactive). Also, the GI50 with PC-3 is 14.9 µM (inactive); in the test with SF-268, 19.1 µM (inactive); with SNB-19 it was 17.2 µM (inactive); with U-251, 15 µM (inactive); in the test on UACC-62, 12.1 µM (inactive).

The values above are taken from ChEMBL document CHEMBL1201862, “PubChem BioAssay data set” (2004).
